Measurements from patent EP0766694B1 (ZAMBON GROUP S.p.A., priority 1994, dated 1995).
Counter-ions that a name gives are not always drawn.

What was measured:
[1] = target: T1, ACE (Oryctolagus cuniculus, UniProt P12822); assay: ACE-inhibitory activity (FAPGG hydrolysis, absorbance at 340 nm); assay type: biochemical; conditions: ACE purified by lung rabbit, FAPGG 0.8 mM, 37°C; compounds of formula I tested in the form of sodium salts
T1 construct: ACE (250 mU/ml purified by lung rabbit, EC 3.4.15.1 SIGMA); purchased SIGMA; host or cells: rabbit lung
T1 sequence (P12822 34-1310): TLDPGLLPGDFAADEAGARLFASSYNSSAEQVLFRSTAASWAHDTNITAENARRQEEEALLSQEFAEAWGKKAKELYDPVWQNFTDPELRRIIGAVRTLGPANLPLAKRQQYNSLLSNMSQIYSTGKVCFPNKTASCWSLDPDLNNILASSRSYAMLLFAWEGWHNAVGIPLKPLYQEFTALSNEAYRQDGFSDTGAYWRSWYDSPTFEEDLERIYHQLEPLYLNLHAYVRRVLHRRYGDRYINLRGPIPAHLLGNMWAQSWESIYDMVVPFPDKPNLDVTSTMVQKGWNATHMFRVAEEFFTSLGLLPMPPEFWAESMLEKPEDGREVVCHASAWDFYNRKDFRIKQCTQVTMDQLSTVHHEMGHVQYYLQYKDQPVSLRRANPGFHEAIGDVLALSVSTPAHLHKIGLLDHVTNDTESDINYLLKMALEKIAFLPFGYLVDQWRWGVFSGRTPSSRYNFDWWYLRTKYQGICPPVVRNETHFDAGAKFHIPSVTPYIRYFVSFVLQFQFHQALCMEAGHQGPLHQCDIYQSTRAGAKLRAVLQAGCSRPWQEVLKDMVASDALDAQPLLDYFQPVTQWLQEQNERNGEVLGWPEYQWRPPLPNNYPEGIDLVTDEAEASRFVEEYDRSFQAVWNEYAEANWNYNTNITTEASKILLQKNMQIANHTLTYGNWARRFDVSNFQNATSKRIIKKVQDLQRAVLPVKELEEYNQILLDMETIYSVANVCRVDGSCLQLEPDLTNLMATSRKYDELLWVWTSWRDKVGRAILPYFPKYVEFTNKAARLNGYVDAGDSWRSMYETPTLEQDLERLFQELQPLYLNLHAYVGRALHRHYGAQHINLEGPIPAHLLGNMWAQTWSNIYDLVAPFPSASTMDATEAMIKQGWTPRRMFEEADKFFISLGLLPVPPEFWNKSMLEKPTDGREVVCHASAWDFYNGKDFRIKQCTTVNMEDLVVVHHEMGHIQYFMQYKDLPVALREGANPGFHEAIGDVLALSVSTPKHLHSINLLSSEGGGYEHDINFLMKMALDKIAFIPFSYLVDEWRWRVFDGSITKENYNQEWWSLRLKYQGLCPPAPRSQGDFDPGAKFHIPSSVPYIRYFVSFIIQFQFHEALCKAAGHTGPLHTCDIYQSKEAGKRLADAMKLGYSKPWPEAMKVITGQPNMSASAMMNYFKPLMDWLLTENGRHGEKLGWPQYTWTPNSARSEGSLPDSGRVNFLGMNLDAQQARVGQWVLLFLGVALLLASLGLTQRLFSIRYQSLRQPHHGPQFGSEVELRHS
Experimental: […] of ACE (250 mU/ml purified by lung rabbit, EC 3.4.15.1 SIGMA) with 50 µl of the compound of formula I or of the reference compounds, were preincubated in thermostated cuvettes at 37°C for 5 minutes.
The reaction was started by adding furylacryloylphenylalanylglycylglycine 0.8 mM (FAPGG-SIGMA).
Contemporaneously, by using a Beckman DU-50 spectrophotometer provided with a program for calculating delta A/minutes and regression coefficients of the enzyme kinetics curves, the absorbance at 340 nm was recorded in continuo for 5 minutes.

[2] = target: T2, NEP (Rattus norvegicus, UniProt P07861); assay: NEP-inhibitory activity (inhibition of [3H]Tyr-Gly-Gly formation from [3H][Leu5]-enkephaline in kidney cortex membranes)
T2 sequence (P07861 1-750): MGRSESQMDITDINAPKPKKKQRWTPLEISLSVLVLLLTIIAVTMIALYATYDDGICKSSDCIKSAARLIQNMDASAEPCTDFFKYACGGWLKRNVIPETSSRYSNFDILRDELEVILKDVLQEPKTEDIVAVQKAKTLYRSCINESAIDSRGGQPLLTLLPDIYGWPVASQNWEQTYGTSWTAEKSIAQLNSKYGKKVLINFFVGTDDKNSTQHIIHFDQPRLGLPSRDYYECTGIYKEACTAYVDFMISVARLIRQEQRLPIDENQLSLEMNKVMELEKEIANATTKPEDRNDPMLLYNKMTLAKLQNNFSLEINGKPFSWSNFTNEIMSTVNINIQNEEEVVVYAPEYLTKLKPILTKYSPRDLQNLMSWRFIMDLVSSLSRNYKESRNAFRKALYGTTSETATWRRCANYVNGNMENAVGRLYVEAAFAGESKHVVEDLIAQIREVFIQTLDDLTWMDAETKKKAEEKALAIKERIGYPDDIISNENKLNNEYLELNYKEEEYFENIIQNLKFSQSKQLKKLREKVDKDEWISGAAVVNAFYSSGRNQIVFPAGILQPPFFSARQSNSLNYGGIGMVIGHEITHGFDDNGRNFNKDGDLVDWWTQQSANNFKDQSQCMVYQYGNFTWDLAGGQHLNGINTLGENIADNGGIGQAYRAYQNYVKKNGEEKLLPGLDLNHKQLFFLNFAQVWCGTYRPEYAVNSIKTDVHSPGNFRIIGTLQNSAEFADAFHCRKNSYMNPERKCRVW

Compound | IC50 [1] [µM] | IC50 [2] [µM] | NEP-inhibitory activity IC50 (nM) ([2]; membranes from rat kidney cortex, [3H][Leu5]-enkephaline 15 nM, 20 minutes at 30°C, compounds of formula I tested in the form of sodium salts)
O=C(O)[C@H](Cc1ccc(-c2ccccc2)cc1)NC(=O)[C@H](Cc1cccs1)N[C@@H](CCc1ccccc1)C(=O)O [Compound 15] | 0.0018 | 0.01 | 
CC(C)C[C@H](N[C@@H](CCc1ccccc1)C(=O)O)C(=O)N[C@@H](Cc1ccc(-c2ccccc2)cc1)C(=O)O [Compound 1, N-[N'-[(1S)-1-carboxy-3-phenyl-propyl]-L-leucyl]-(1.1'-biphenyl-4-yl)-L-alanine disodium salt] | 0.0015 | 0.0277 | 
CC(C)[C@H](N[C@@H](CCc1ccccc1)C(=O)O)C(=O)N[C@@H](Cc1ccc(-c2ccccc2)cc1)C(=O)O [Compound 10] | 0.002 | 0.041 | 
CC(C)C[C@H](N[C@@H](CC(=O)NCc1ccccc1)C(=O)O)C(=O)N[C@@H](Cc1ccc(-c2ccccc2)cc1)C(=O)O [Compound 20] | 0.015 | 0.053 | 
C[C@H](CS)C(=O)N1CCC[C@H]1C(=O)O [Captopril, reference compound] |  |  | not active
CC(C)C[C@H](N[C@@H](CCC(=O)Nc1ccccc1)C(=O)O)C(=O)N[C@@H](Cc1ccc(-c2ccccc2)cc1)C(=O)O [Compound 17] | 0.0022 | 0.027 | 
